Laboratory results as given in publication PMC6364417, “Kinase inhibitor library screening identifies synergistic drug combinations effective in sensitive and resistant melanoma cells” (Journal of Experimental & Clinical Cancer Research : CR, 2019).
Read-outs that look alike come from different tables or passages of the source.

Experiments:
Test in all cases: Kinase inhibitor library screening, PrestoBlue cell viability, 1 or 10 μM, 72 h
[1] = tested on: A375-GP cells (Dabrafenib-resistant)
[2] = tested on: 501Mel-XP cells (Vemurafenib-resistant); details: for Cell viability in kinase inhibitor library screening, 501Mel XP, 1μΜ / Cell viability in kinase inhibitor library screening, 501Mel XP, 10μΜ: in %
[3] = tested on: 501Mel-GP cells (Dabrafenib-resistant); details: for Cell viability in kinase inhibitor library screening, 501Mel GP, 1μΜ / Cell viability in kinase inhibitor library screening, 501Mel GP, 10μΜ: in %
[4] = tested on: IGR37 cells (parental); details: for Cell viability in kinase inhibitor library screening, IGR37 Parental, 1μΜ / Cell viability in kinase inhibitor library screening, IGR37 Parental, 10μΜ: in %
[5] = tested on: 501Mel cells (parental); details: for Cell viability in kinase inhibitor library screening, 501Mel Parental, 1μΜ / Cell viability in kinase inhibitor library screening, 501Mel Parental, 10μΜ: in %
Procedure, shortened: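 Normalised to untreated controls, viability percentages came from PrestoBlue measured on a microplate reader following 72 h incubation with drug. Each line was assayed at least twice.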

[6] = tested on: IGR37-XP cells (Vemurafenib-resistant); details: for Cell viability in kinase inhibitor library screening, IGR37 XP, 1μΜ: in %
[7] = tested on: A375 cells (parental)
[8] = tested on: IGR37-GP cells (Dabrafenib-resistant); details: for Cell viability in kinase inhibitor library screening, IGR37 GP, 1μΜ: in %
[9] = tested on: A375-XP cells (Vemurafenib-resistant)

## CN1CCN(C2CCN(C(=O)Nc3cc(Oc4ccc(NC(=O)C5(C(=O)Nc6ccc(F)cc6)CC5)c(F)c4)ccn3)CC2)CC1 [Golvatinib (E7050)]
[1]; A375 GP, 1μΜ, 72 h
  cell viability (kinase inhibitor library screening): 103.0%
[1]; A375 GP, 10μΜ, 72 h
  cell viability (kinase inhibitor library screening): 53.0%
[2]; 501Mel XP, 1μΜ, 72 h
  cell viability (kinase inhibitor library screening): 66.2%
[2]; 501Mel XP, 10μΜ, 72 h
  cell viability (kinase inhibitor library screening): -0.363%
[3]; 501Mel GP, 1μΜ, 72 h
  cell viability (kinase inhibitor library screening): 81.2%
[3]; 501Mel GP, 10μΜ, 72 h
  cell viability (kinase inhibitor library screening): -0.26%
[4]; IGR37 Parental, 1μΜ, 72 h
  cell viability (kinase inhibitor library screening): 99.0%
[4]; IGR37 Parental, 10μΜ, 72 h
  cell viability (kinase inhibitor library screening): 18.3%
[5]; 501Mel Parental, 1μΜ, 72 h
  cell viability (kinase inhibitor library screening): 96.5%
[5]; 501Mel Parental, 10μΜ, 72 h
  cell viability (kinase inhibitor library screening): 0.148%
[6]; IGR37 XP, 1μΜ, 72 h
  cell viability (kinase inhibitor library screening): 95.2%
[6]; IGR37 XP, 10μΜ, 72 h
  cell viability (kinase inhibitor library screening): 10.4%
[7]; A375 Parental, 10μΜ, 72 h
  cell viability (kinase inhibitor library screening): 70.5%
[7]; A375 Parental, 1μΜ, 72 h
  cell viability (kinase inhibitor library screening): 93.1%
[8]; IGR37 GP, 1μΜ, 72 h
  cell viability (kinase inhibitor library screening): 92.1%
[8]; IGR37 GP, 10μΜ, 72 h
  cell viability (kinase inhibitor library screening): 49.6%
[9]; A375 XP, 1μΜ, 72 h
  cell viability (kinase inhibitor library screening): 99.6%
[9]; A375 XP, 10μΜ, 72 h
  cell viability (kinase inhibitor library screening): 65.0%

## COc1ccc(S(=O)(=O)N(C(C)=O)c2ccccc2/C=C/c2cc[n+]([O-])cc2)cc1 [HMN-214]
[1]
  Cell viability in kinase inhibitor library screening, A375 GP, 1μΜ: 42.6
  Cell viability in kinase inhibitor library screening, A375 GP, 10μΜ: 20.9
[2]
  Cell viability in kinase inhibitor library screening, 501Mel XP, 1μΜ: 14.9
  Cell viability in kinase inhibitor library screening, 501Mel XP, 10μΜ: 12.4
[3]
  Cell viability in kinase inhibitor library screening, 501Mel GP, 1μΜ: 21.4
  Cell viability in kinase inhibitor library screening, 501Mel GP, 10μΜ: 22.7
[4]
  Cell viability in kinase inhibitor library screening, IGR37 Parental, 1μΜ: 19.8
  Cell viability in kinase inhibitor library screening, IGR37 Parental, 10μΜ: 16.1
[5]
  Cell viability in kinase inhibitor library screening, 501Mel Parental, 1μΜ: 17.6
  Cell viability in kinase inhibitor library screening, 501Mel Parental, 10μΜ: 20.7
[6]
  Cell viability in kinase inhibitor library screening, IGR37 XP, 10μΜ: 28.3%
  Cell viability in kinase inhibitor library screening, IGR37 XP, 1μΜ: 57.1
[7]
  Cell viability in kinase inhibitor library screening, A375 Parental, 1μΜ: 34.0
  Cell viability in kinase inhibitor library screening, A375 Parental, 10μΜ: 23.3
[8]
  Cell viability in kinase inhibitor library screening, IGR37 GP, 10μΜ: 66.9%
  Cell viability in kinase inhibitor library screening, IGR37 GP, 1μΜ: 69.1
[9]
  Cell viability in kinase inhibitor library screening, A375 XP, 1μΜ: 37.9
  Cell viability in kinase inhibitor library screening, A375 XP, 10μΜ: 18.1

## CNC(=O)c1ccc(-c2cnc3ncc(Cc4ccc5ncccc5c4)n3n2)cc1F [INCB28060]
[1]; A375 GP, 1μΜ, 72 h
  cell viability (kinase inhibitor library screening): 103.9%
[1]; A375 GP, 10μΜ, 72 h
  cell viability (kinase inhibitor library screening): 95.7%
[2]; 501Mel XP, 1μΜ, 72 h
  cell viability (kinase inhibitor library screening): 68.2%
[2]; 501Mel XP, 10μΜ, 72 h
  cell viability (kinase inhibitor library screening): 62.9%
[3]; 501Mel GP, 1μΜ, 72 h
  cell viability (kinase inhibitor library screening): 81.7%
[3]; 501Mel GP, 10μΜ, 72 h
  cell viability (kinase inhibitor library screening): 67.0%
[4]; IGR37 Parental, 1μΜ, 72 h
  cell viability (kinase inhibitor library screening): 106.9%
[4]; IGR37 Parental, 10μΜ, 72 h
  cell viability (kinase inhibitor library screening): 100.3%
[5]; 501Mel Parental, 1μΜ, 72 h
  cell viability (kinase inhibitor library screening): 99.4%
[5]; 501Mel Parental, 10μΜ, 72 h
  cell viability (kinase inhibitor library screening): 93.5%
[6]; IGR37 XP, 1μΜ, 72 h
  cell viability (kinase inhibitor library screening): 98.3%
[6]; IGR37 XP, 10μΜ, 72 h
  cell viability (kinase inhibitor library screening): 47.6%
[7]; A375 Parental, 1μΜ, 72 h
  cell viability (kinase inhibitor library screening): 103.1%
[8]; IGR37 GP, 1μΜ, 72 h
  cell viability (kinase inhibitor library screening): 97.1%
[8]; IGR37 GP, 10μΜ, 72 h
  cell viability (kinase inhibitor library screening): 85.7%
[9]; A375 XP, 1μΜ, 72 h
  cell viability (kinase inhibitor library screening): 106.9%
[9]; A375 XP, 10μΜ, 72 h
  cell viability (kinase inhibitor library screening): 103.3%

## CC(C)n1nc(-c2ccc3oc(N)nc3c2)c2c(N)ncnc21 [INK 128]
[1]; A375 GP, 1μΜ, 72 h
  Cell viability in kinase inhibitor library screening, A375 GP, 1μΜ: 21.6
[1]; A375 GP, 10μΜ, 72 h
  Cell viability in kinase inhibitor library screening, A375 GP, 10μΜ: 13.0
[2]; 501Mel XP, 1μΜ, 72 h
  Cell viability in kinase inhibitor library screening, 501Mel XP, 1μΜ: 11.6
[2]; 501Mel XP, 10μΜ, 72 h
  Cell viability in kinase inhibitor library screening, 501Mel XP, 10μΜ: 2.4
[3]; 501Mel GP, 1μΜ, 72 h
  Cell viability in kinase inhibitor library screening, 501Mel GP, 1μΜ: 17.2
[3]; 501Mel GP, 10μΜ, 72 h
  Cell viability in kinase inhibitor library screening, 501Mel GP, 10μΜ: 6.6
[4]; IGR37 Parental, 1μΜ, 72 h
  Cell viability in kinase inhibitor library screening, IGR37 Parental, 1μΜ: 22.4
[4]; IGR37 Parental, 10μΜ, 72 h
  Cell viability in kinase inhibitor library screening, IGR37 Parental, 10μΜ: 13.5
[5]; 501Mel Parental, 1μΜ, 72 h
  Cell viability in kinase inhibitor library screening, 501Mel Parental, 1μΜ: 15.4
[5]; 501Mel Parental, 10μΜ, 72 h
  Cell viability in kinase inhibitor library screening, 501Mel Parental, 10μΜ: 5.9
[6]; IGR37 XP, 10μΜ, 72 h
  Cell viability in kinase inhibitor library screening, IGR37 XP, 10μΜ: 6.1%
[6]; IGR37 XP, 1μΜ, 72 h
  Cell viability in kinase inhibitor library screening, IGR37 XP, 1μΜ: 27.3
[7]; A375 Parental, 10μΜ, 72 h
  Cell viability in kinase inhibitor library screening, A375 Parental, 10μΜ: 13.5
[7]; A375 Parental, 1μΜ, 72 h
  Cell viability in kinase inhibitor library screening, A375 Parental, 1μΜ: 19.9
[8]; IGR37 GP, 10μΜ, 72 h
  Cell viability in kinase inhibitor library screening, IGR37 GP, 10μΜ: 16.8%
[8]; IGR37 GP, 1μΜ, 72 h
  Cell viability in kinase inhibitor library screening, IGR37 GP, 1μΜ: 44.7
[9]; A375 XP, 1μΜ, 72 h
  Cell viability in kinase inhibitor library screening, A375 XP, 1μΜ: 19.9
[9]; A375 XP, 10μΜ, 72 h
  Cell viability in kinase inhibitor library screening, A375 XP, 10μΜ: 12.7
